{"source": "patent US5367077A", "about": "(priority 1992, dated 1994)"}
{"biological_target": "GABAa receptor", "test": "GABAa receptor binding assay: displacement of [3H]-Flumazenil (RO15-1788) from rat cortical tissue", "conditions": "rat cortical tissue homogenate, 0.5 nM 3H-RO15-1788, 30 min at 4° C., pH 7.4", "protocol": "The pharmaceutical utility of compounds of this invention are indicated by the following assay for GABAa receptor activity.\nAssays are carried out as described in Thomas and Tallman (J. Bio. Chem. 156: 9838-9842 , J. Neurosci. 3: 433-440, 1983). Rat cortical tissue is dissected and homogenized in 25 volumes (w/v) of 0.05M Tris HCl buffer (pH 7.4 at 4° C.). The tissue homogenate is centrifuged in the cold (4° ) at 20,000×g for 20'. The supernatant is decanted and the pellet is rehomogenized in the same volume of buffer and again centrifuged at 20,000×g. The supernatant is decanted and the pellet is frozen at -20° C. overnight. The pellet is then thawed and rehomogenized in 25 volume (original wt/vol) of buffer and the procedure is carried out twice. The pellet is finally resuspended in 50 volumes (w/vol of 0.05M Tris HCI buffer (pH 7.4 at […]).\nIncubations contain 100 μl of tissue homogenate, 100 μl of radioligand 0.5nM (^3 H-RO15-1788 [^3 H-Flumazenil] specific activity 80 Ci/mmol), drug or blocker and buffer to a total volume of 500 μl. Incubations are carried for 30 min at 4° C. then are rapidly filtered through GFB filters to separate free and bound ligand. Filters are washed twice with fresh 0.05M Tris HCI buffer (pH 7.4 at 4° C.) and counted in a liquid scintillation counter. 1.0 μM diazepam is added to some tubes to determine nonspecific binding. Data are collected in triplicate determinations. averaged and % inhibition of total specific binding is calculated. Total Specific Binding=Total-Nonspecific. In some cases, the amounts of unlabeled drugs is varied and total displacement curves of binding are carried out. Data are converted to a form for the calculation of IC50 and Hill Coefficient (nH).", "units": {"IC50": "nM"}}
{"molecule": "COc1cccc(-c2cc3c4c([nH]c3cn2)CCN(Cc2ccccc2)C4)c1", "note": "[Compound 24, 8-Benzyl-2-(3-methoxyphenyl)-5,6,7,9-tetrahydro-5H-pyrido[4,3-b]pyrido[4,3-d]-pyrrole]", "IC50": 240}
{"molecule": "Fc1ccccc1-c1cc2c3c([nH]c2cn1)CCN(Cc1ccccc1)C3", "note": "[Compound 20, 8-Benzyl-2-(2-fluorophenyl)-5,6,7,9-tetrahydro-5H-pyrido[4,3-b]pyrido[4,3-d]-pyrrole]", "IC50": 130}
{"molecule": "COc1cccc(-c2cc3c4c([nH]c3cn2)CCC2(C4)OCCO2)c1", "note": "[Compound 18, 2'-(3-Methoxyphenyl)-5',6',7',9'-tetrahydro-spiro[(1,3)dioxolane-2,8'-5H-indolo[3,4-b]pyridine]]", "IC50": 120}
{"molecule": "Fc1ccccc1-c1cc2c3c([nH]c2cn1)CCCC3", "note": "[Compound 2]", "IC50": 550}
